# According to patent US9546156B2, “N-bicyclic aryl,N'-pyrazolyl urea, thiourea, guanidine cyanoguanidine compounds as TrkA kinase inhibitors” (Array BioPharma Inc., priority 2012, dated 2017):
# pIC50: −log10 of the molar value.
# Columns and labels:
# Ros = molecular target: T1, Ros (Homo sapiens, UniProt P08922); test: Off-target kinase profiling (KinaseProfiler); type: biochemical; details: 10 μM, ATP near Km
# T1 construct: purchased Millipore, Inc. (KinaseProfiler service)
# How it was run: (§1)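 The compound was screened at 10 μM, with ATP held close to the Km of each target enzyme. Two measurements per kinase were made, and the reported figure is their mean activity as a percentage of control.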
# IRAK1 = molecular target: T2, IRAK1 (Homo sapiens, UniProt P51617); test: Off-target kinase profiling (KinaseProfiler); type: biochemical; details: 10 μM, ATP near Km
# T2 construct: purchased Millipore, Inc. (KinaseProfiler service)
# How it was run: as §1
# HIPK1 = molecular target: T3, HIPK1 (Homo sapiens, UniProt Q86Z02); test: Off-target kinase profiling (KinaseProfiler); type: biochemical; details: 10 μM, ATP near Km
# T3 construct: purchased Millipore, Inc. (KinaseProfiler service)
# T3 sequence (Q86Z02 whole entry): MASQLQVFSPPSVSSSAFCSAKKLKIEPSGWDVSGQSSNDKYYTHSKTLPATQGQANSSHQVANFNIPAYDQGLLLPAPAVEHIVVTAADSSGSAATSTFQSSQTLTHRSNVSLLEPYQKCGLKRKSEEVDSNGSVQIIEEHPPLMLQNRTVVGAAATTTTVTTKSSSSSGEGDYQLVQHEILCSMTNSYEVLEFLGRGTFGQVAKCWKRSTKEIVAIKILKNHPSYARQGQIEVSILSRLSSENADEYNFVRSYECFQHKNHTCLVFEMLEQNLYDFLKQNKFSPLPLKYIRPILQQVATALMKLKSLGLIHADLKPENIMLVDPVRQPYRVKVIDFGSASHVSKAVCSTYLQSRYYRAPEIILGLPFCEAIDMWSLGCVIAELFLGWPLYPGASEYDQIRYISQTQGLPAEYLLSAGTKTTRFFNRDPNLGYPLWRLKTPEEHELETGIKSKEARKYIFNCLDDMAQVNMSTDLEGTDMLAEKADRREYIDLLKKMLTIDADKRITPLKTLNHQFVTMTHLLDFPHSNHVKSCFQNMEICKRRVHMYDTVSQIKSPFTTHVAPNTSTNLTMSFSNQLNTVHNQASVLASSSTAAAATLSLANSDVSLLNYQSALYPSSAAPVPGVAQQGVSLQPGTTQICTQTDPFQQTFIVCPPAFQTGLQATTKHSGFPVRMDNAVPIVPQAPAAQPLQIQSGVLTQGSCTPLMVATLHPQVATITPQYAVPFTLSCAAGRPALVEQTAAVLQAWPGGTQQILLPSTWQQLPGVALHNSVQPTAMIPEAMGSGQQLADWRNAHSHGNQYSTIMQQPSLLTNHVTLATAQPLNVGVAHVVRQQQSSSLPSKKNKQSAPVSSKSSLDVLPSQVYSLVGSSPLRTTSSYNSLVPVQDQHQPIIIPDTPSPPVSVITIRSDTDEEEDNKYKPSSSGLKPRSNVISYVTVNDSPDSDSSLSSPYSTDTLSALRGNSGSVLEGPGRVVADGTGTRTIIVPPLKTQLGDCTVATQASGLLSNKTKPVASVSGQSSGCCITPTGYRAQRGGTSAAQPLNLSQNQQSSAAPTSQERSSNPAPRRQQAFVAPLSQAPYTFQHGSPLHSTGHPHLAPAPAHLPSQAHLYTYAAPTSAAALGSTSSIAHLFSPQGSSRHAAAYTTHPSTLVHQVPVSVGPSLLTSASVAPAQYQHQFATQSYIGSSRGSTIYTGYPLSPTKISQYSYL
# How it was run: as §1
# GSK3alpha = molecular target: T4, GSK3alpha (Homo sapiens, UniProt P49840); test: Off-target kinase profiling (KinaseProfiler); type: biochemical; details: 10 μM, ATP near Km
# T4 construct: purchased Millipore, Inc. (KinaseProfiler service)
# T4 sequence (P49840 whole entry): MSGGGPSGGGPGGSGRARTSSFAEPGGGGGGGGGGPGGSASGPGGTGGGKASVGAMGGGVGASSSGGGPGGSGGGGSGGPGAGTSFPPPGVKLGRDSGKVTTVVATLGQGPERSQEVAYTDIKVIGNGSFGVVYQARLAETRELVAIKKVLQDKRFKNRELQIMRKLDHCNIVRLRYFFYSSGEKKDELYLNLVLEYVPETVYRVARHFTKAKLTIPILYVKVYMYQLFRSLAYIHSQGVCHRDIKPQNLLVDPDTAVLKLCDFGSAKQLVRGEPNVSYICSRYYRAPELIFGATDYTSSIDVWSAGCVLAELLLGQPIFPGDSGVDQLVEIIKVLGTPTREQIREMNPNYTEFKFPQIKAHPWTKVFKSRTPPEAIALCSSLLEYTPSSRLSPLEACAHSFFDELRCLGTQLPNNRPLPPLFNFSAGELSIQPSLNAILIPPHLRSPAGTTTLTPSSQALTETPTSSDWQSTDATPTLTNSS
# How it was run: as §1
# PKCgamma = molecular target: T5, PKCgamma (Homo sapiens, UniProt P05129); test: Off-target kinase profiling (KinaseProfiler); type: biochemical; details: 10 μM, ATP near Km
# T5 construct: purchased Millipore, Inc. (KinaseProfiler service)
# How it was run: as §1
# BLK_m = molecular target: T6, BLK_m (Mus musculus, UniProt P16277); test: Off-target kinase profiling (KinaseProfiler); type: biochemical; details: 10 μM, ATP near Km
# T6 construct: purchased Millipore, Inc. (KinaseProfiler service)
# How it was run: as §1
# LOK = molecular target: T7, LOK (Homo sapiens, UniProt O94804); test: Off-target kinase profiling (KinaseProfiler); type: biochemical; details: 10 μM, ATP near Km
# T7 construct: purchased Millipore, Inc. (KinaseProfiler service)
# How it was run: as §1
# p38delta = molecular target: T8, p38delta (Homo sapiens, UniProt O15264); test: Off-target kinase profiling (KinaseProfiler); type: biochemical; details: 10 μM, ATP near Km
# T8 construct: purchased Millipore, Inc. (KinaseProfiler service)
# T8 sequence (O15264 whole entry): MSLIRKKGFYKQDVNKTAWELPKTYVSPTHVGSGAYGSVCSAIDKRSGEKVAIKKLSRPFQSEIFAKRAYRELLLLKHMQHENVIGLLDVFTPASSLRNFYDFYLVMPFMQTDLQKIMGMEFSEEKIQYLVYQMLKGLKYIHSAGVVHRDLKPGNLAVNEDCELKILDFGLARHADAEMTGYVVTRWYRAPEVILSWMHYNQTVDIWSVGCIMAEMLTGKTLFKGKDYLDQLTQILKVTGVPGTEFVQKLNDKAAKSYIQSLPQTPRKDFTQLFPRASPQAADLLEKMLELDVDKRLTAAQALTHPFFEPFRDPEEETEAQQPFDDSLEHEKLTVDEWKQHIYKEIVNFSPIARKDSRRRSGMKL
# How it was run: as §1
# Flt3 = molecular target: T9, Flt3 (Homo sapiens, UniProt P36888); test: Off-target kinase profiling (KinaseProfiler); type: biochemical; details: 10 μM, ATP near Km
# T9 construct: purchased Millipore, Inc. (KinaseProfiler service)
# How it was run: as §1
# PAK5 = molecular target: T10, PAK5 (Homo sapiens, UniProt Q9P286); test: Off-target kinase profiling (KinaseProfiler); type: biochemical; details: 10 μM, ATP near Km
# T10 construct: purchased Millipore, Inc. (KinaseProfiler service)
# How it was run: as §1
# TAK1 = molecular target: T11, TAK1 (Homo sapiens, UniProt O43318); test: Off-target kinase profiling (KinaseProfiler); type: biochemical; details: 10 μM, ATP near Km
# T11 construct: purchased Millipore, Inc. (KinaseProfiler service)
# T11 sequence (O43318 1-303 limits assumed): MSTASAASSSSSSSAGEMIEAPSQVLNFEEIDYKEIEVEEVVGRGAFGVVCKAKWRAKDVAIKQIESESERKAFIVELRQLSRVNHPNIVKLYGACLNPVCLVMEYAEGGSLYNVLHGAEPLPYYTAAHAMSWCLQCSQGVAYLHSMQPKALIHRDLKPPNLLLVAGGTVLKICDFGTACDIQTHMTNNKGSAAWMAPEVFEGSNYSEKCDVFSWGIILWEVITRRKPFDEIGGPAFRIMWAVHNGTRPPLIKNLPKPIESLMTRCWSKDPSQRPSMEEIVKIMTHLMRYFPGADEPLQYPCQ
# How it was run: as §1
# MAP4K2 = molecular target: T12, MAP4K2 (Homo sapiens, UniProt Q12851); test: Off-target kinase profiling (KinaseProfiler); type: biochemical; details: 10 μM, ATP near Km
# T12 construct: purchased Millipore, Inc. (KinaseProfiler service)
# How it was run: as §1
# IKKalpha = molecular target: T13, IKKalpha (Homo sapiens, UniProt O15111); test: Off-target kinase profiling (KinaseProfiler); type: biochemical; details: 10 μM, ATP near Km
# T13 construct: purchased Millipore, Inc. (KinaseProfiler service)
# How it was run: as §1
# MSSK1 = molecular target: T14, MSSK1 (Homo sapiens, UniProt Q9UPE1); test: Off-target kinase profiling (KinaseProfiler); type: biochemical; details: 10 μM, ATP near Km
# T14 construct: purchased Millipore, Inc. (KinaseProfiler service)
# How it was run: as §1
# Fyn = molecular target: T15, Fyn (Homo sapiens, UniProt P06241); test: Off-target kinase profiling (KinaseProfiler); type: biochemical; details: 10 μM, ATP near Km
# T15 construct: purchased Millipore, Inc. (KinaseProfiler service)
# T15 sequence (P06241 whole entry): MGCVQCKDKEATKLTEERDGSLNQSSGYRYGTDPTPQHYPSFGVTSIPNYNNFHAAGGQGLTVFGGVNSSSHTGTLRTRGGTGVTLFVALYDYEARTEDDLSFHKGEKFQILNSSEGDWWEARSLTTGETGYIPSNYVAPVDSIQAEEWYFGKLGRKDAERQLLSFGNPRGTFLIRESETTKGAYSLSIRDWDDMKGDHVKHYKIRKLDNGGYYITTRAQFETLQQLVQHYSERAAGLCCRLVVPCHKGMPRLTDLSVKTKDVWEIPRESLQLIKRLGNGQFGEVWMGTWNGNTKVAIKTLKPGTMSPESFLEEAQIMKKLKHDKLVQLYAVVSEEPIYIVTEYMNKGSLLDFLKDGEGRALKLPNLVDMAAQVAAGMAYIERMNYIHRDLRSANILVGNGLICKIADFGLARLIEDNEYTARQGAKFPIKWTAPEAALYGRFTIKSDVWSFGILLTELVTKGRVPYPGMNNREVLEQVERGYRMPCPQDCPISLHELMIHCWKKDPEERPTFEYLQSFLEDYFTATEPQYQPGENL
# How it was run: as §1
# FGFR1 = molecular target: T16, FGFR1 (Homo sapiens, UniProt P11362); test: Off-target kinase profiling (KinaseProfiler); type: biochemical; details: 10 μM, ATP near Km
# T16 construct: purchased Millipore, Inc. (KinaseProfiler service)
# How it was run: as §1
# Pim-3 = molecular target: T17, Pim-3 (Homo sapiens, UniProt Q86V86); test: Off-target kinase profiling (KinaseProfiler); type: biochemical; details: 10 μM, ATP near Km
# T17 construct: purchased Millipore, Inc. (KinaseProfiler service)
# How it was run: as §1
# SIK = molecular target: T18, SIK (Homo sapiens, UniProt P57059); test: Off-target kinase profiling (KinaseProfiler); type: biochemical; details: 10 μM, ATP near Km
# T18 construct: purchased Millipore, Inc. (KinaseProfiler service)
# How it was run: as §1
# MKK7beta = molecular target: T19, MKK7beta (Homo sapiens, UniProt O14733); test: Off-target kinase profiling (KinaseProfiler); type: biochemical; details: 10 μM, ATP near Km
# T19 construct: purchased Millipore, Inc. (KinaseProfiler service)
# How it was run: as §1
# DAPK2 = molecular target: T20, DAPK2 (Homo sapiens, UniProt Q9UIK4); test: Off-target kinase profiling (KinaseProfiler); type: biochemical; details: 10 μM, ATP near Km
# T20 construct: purchased Millipore, Inc. (KinaseProfiler service)
# How it was run: as §1
# AKT1 = molecular target: T21, AKT1 (Homo sapiens, UniProt P31749); test: Off-target kinase profiling (KinaseProfiler); type: biochemical; details: 10 μM, ATP near Km
# T21 construct: purchased Millipore, Inc. (KinaseProfiler service)
# How it was run: as §1
# EphA5 = molecular target: T22, EphA5 (Homo sapiens, UniProt P54756); test: Off-target kinase profiling (KinaseProfiler); type: biochemical; details: 10 μM, ATP near Km
# T22 construct: purchased Millipore, Inc. (KinaseProfiler service)
# T22 sequence (P54756 25-1037): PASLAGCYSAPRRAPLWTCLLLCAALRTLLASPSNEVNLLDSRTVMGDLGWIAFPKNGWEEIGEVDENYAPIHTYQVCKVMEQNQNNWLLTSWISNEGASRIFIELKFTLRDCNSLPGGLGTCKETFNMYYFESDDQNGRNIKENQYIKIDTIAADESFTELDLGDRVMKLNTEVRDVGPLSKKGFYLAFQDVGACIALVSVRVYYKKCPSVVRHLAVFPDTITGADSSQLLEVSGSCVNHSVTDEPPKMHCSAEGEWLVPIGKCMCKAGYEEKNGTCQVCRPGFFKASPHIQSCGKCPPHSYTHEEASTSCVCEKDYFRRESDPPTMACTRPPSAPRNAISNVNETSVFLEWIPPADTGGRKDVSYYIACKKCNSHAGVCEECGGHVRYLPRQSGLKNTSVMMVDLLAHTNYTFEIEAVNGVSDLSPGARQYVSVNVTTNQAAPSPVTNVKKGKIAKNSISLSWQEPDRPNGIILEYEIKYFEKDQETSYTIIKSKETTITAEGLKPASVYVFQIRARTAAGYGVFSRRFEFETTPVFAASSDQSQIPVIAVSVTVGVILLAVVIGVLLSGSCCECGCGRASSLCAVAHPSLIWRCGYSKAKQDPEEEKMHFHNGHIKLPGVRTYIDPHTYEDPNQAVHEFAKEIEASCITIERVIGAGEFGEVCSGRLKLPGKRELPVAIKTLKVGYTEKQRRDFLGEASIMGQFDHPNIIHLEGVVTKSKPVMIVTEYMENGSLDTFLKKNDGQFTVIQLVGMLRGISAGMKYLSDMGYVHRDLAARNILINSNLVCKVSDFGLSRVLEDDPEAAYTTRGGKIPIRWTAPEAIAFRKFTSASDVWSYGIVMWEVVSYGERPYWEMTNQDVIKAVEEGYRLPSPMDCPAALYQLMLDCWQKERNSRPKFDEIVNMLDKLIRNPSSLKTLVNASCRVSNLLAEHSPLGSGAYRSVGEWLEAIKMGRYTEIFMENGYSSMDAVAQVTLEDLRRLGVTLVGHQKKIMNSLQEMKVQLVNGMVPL
# How it was run: as §1
# CK1_y = test: Off-target kinase profiling (KinaseProfiler); type: biochemical; details: 10 μM, ATP near Km
# How it was run: as §1
# [1] = molecular target: T23, His-tagged recombinant human TrkA (Homo sapiens, UniProt P04629); test: TrkA LanthaScreen Eu Kinase Binding Assay; details: averaged IC50; TR-FRET binding assay, 60 min, 22° C.; read-out: TrkA Enzyme IC50
# T23 construct: 6HIS tagged cytoplasmic domain from Invitrogen, Catalog No. PV3144; purchased Invitrogen PV3144
# Procedure: TrkA binding activity was determined in a TrkA LanthaScreen™ Eu Kinase Binding Assay. 5 nM His-tagged recombinant human TrkA (6HIS tagged cytoplasmic domain from Invitrogen, Catalog No. PV3144) was incubated with 4 nM Alexa-Fluor® Tracer 236 (Invitrogen Cat. No. PV5592), 2 nM biotinylated anti-His (Invitrogen Cat. No. PV6090), and 2 nM europium-labeled Streptavidin (Invitrogen Cat. No. PV5899), in buffer (25 mM MOPS, pH 7.5, 5 mM MgCl2, 0.005% Triton X-100). Three fold serial dilutions of compounds of the invention in DMSO were added to a final percentage of 2% DMSO. After 60-minute incubation at 22° C., the reaction was measured using the EnVision multimode plate reader (PerkinElmer) via TR-FRET dual wavelength detection at […]. The percent of control was calculated using a ratiometric emission factor. The IC50 values were determined by fitting a four parameter model to the percent of control data.
# Table A provides averaged IC50 values for compounds of the invention when tested in the assay of Example A, where A represents an averaged IC50 value <100 nM; B represents an averaged IC50 value from 100 to 1,000 nM; and C represents an averaged IC50 value from 1,000 to 10,000 nM.
smiles,measurement,setting,value
"COCc1ccc2cccc(NC(=O)Nc3c(C)c(-c4cnn(C)c4)nn3-c3ccccc3)c2c1 [Example 16, 1-(1′,4-dimethyl-1-phenyl-1H,1′H-[3,4′-bipyrazol]-5-yl)-3-(7-(methoxymethyl)naphthalen-1-yl)urea]",Avg POC,Ros,117.5 POC
same,Avg POC,IRAK1,125 POC
same,Avg POC,HIPK1,119 POC
same,Avg POC,GSK3alpha,125 POC
same,Avg POC,PKCgamma,100.5 POC
same,Avg POC,BLK_m,106.5 POC
same,Avg POC,LOK,120.5 POC
same,Avg POC,p38delta,121 POC
same,Avg POC,Flt3,121.5 POC
same,Avg POC,PAK5,122.5 POC
same,Avg POC,TAK1,110.5 POC
same,Avg POC,MAP4K2,110.5 POC
same,Avg POC,IKKalpha,138.5 POC
same,Avg POC,MSSK1,136.5 POC
same,Avg POC,Fyn,112.5 POC
same,Avg POC,FGFR1,116 POC
same,Avg POC,Pim-3,113.5 POC
same,Avg POC,SIK,121 POC
same,Avg POC,MKK7beta,115.5 POC
same,Avg POC,DAPK2,105.5 POC
same,Avg POC,AKT1,129 POC
same,Avg POC,EphA5,118.5 POC
same,Avg POC,CK1_y,105 POC
same,pIC50,[1],> 7.00
